Paper PMC10221314 (Pharmaceuticals, 2023)
Several values for one entry are separate records, joined by “and”; a condition that tells them apart may be missing. Equal entries are not always repeated.

Target: T1, FXR (Homo sapiens, UniProt Q96RI1)
T1 construct: a fusion plasmid of Gal4 DBD-NR-LBD, which included PPARα, PPARβ, PPARγ, RXRα, RXRβ, RXRγ, LXRα, LXRβ, GPBAR, PXR, and FXR; expressed in transfected cells; host or cells: HEK-293T
T1 sequence (Q96RI1 262-486 limits assumed): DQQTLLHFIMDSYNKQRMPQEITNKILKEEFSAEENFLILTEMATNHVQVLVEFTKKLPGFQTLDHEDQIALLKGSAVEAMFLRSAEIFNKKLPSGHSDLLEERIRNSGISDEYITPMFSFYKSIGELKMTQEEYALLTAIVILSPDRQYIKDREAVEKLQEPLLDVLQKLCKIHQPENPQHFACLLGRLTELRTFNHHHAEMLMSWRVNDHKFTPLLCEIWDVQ
Test: Yeast one-hybrid assay of FXR antagonistic activity in HEK-293T cells
Type: cell-based
Settings: HEK-293T cells; CDCA (50 μM) as agonist; mean ± SE of three independent tests
Method: Cell counting: HEK-293T cells in logarithmic growth phase were digested with 0.25% trypsin, collected, and centrifuged. The trypsin-containing medium was discarded, and 2 mL of fresh phenol red-free DMEM medium containing 5% fetal bovine serum was added. The cells were then mixed with the medium to prepare a cell suspension and counted on a cell counting plate.
Cell plating: A determined number of cells were taken from the cell suspension, diluted with phenol red-free DMEM medium containing 5% fetal bovine serum, and plated at a concentration of 10,000 cells per well (100 µL medium) in a 96-well plate. The plate was then incubated at 37 °C and 5% CO2 for 24 h.
Cell transfection: Fresh phenol red-free DMEM medium was taken in a sterile environment, and the previously extracted pFXR-Binding plasmid and PG4.35[luc2P-9XGA4UAS-Hygro] plasmid were added. The mixture was stirred and allowed to stand at 23 °C for 3 min. Then, a 3% amount of transfection reagent was added to the mixture, and it was allowed to stand at 23 °C for 15 min. The mixture was then added to the 96-well plate at a volume of 10 µL per well and incubated at 37 °C in a 5% CO2 environment for 24 h.
The OA derivatives were prepared as 10 mM DMSO stock solutions and further diluted in a concentration gradient, with 10 µL added to each well. The final concentrations of the derivatives ranged from 10 µM to 0.03 µM, with 7 concentration gradients using […] dilution. The test was set with 3 duplicated wells.
Antagonism activity test: The firefly-Renilla Dual Fluorescence Assay Kit (Promega, #E2940, Madison, WI, USA) was used to measure the antagonism activity of the OA derivatives. Firstly, the firefly fluorescence reagent was added to the 96-well plate at a volume of 70 µL per well and shaken in darkness for 15 min. Then, the fluorescence intensity was measured at a wavelength of 645 ± 30 nm in a microplate reader (BioTek, Winooski, VT, USA). Next, the volume of Renilla reagent was added to the 96-well plate at a volume of 70 µL per well and shaken in darkness for 15 min. The fluorescence intensity was then measured at a wavelength of 525 ± 20 nm.
Data processing: The fluorescence data of firefly were divided by the fluorescence data of Renilla to remove errors, and the antagonism efficiency was calculated using the following formula: antagonism efficiency (%) = [1 − (FCompds. − FDMSO)/(FCDCA − FDMSO)] × 100%. In the formula, F represents fluorescence intensity. The antagonistic efficiency data were obtained as a concentration–effect curve using Graphpad Prism 8.0 software, and the corresponding IC50 value was calculated.

**Q.** `CC1(C)CC[C@]2(C(=O)O)CC[C@]3(C)[C@H]([C@H](OC(=O)CC[C@H](N)C(=O)O)CC4[C@@]5(C)CC[C@H](O)C(C)(C)C5CC[C@]43C)[C@@H]2C1` (stereo partly drawn) [Compound 11c, 3-hydroxy-12β-((S)-4′-amino-4′-carboxybutanoyl)oxy-13H-olean-28-oic acid] was tested. Which IC50 did it give?
**A.** Its IC50 is 21300 ± 2600 nM.

**Q.** `CCCOC(=O)NC(CCC(=O)OC1CC2C3(C)CCC(O)C(C)(C)C3CCC2(C)C2(C)CCC3(C(=O)O)CCC(C)(C)CC3C12)C(=O)OC(C)(C)C` [Compound 19c, 3β-hydroxy-12β-(4′-((propoxycarbonyl)amide)-5′-(tert-butoxy)-L-glutamate)oxy-13H-olean-28-oic acid] was tested. Which IC50 did it give?
**A.** The IC50 was 400 to 500 nM and 450 nM.

**Q.** Which IC50 does the source give for `CCOC(=O)NC(CCC(=O)OC1CC2C3(C)CCC(O)C(C)(C)C3CCC2(C)C2(C)CCC3(C(=O)O)CCC(C)(C)CC3C12)C(=O)OC(C)(C)C` [Compound 19b, 3β-hydroxy-12β-(4′-((ethoxycarbonyl)amide)-5′-(tert-butoxy)-L-glutamate)oxy-13H-olean-28-oic acid] here?
**A.** Its IC50 is 570 ± 360 nM.

**Q.** For `CC(C)OC(=O)NC(CCC(=O)OC1CC2C3(C)CCC(O)C(C)(C)C3CCC2(C)C2(C)CCC3(C(=O)O)CCC(C)(C)CC3C12)C(=O)OC(C)(C)C` [Compound 19d, 3β-hydroxy-12β-(4′-((isopropoxycarbonyl)amide)-5′-(tert-butoxy)-L-glutamate)oxy-13H-olean-28-oic acid], which IC50 is on record?
**A.** The IC50 was 400 to 500 nM and 470 nM.

**Q.** For `CCOC(=O)C(CCC(=O)OC1CC2C3(C)CCC(O)C(C)(C)C3CCC2(C)C2(C)CCC3(C(=O)O)CCC(C)(C)CC3C12)NC(=O)OC(C)(C)C` [Compound 20b, 3β-hydroxy-12β-(4′-((tert-butoxycarbonyl)amide)-5′-ethoxy-L-glutamate)oxy-13H-olean-28-oic acid], which IC50 is on record?
**A.** The IC50 was 1020 ± 210 nM.

**Q.** How did the IC50 turn out when `CC(C)COC(=O)C(CCC(=O)OC1CC2C3(C)CCC(O)C(C)(C)C3CCC2(C)C2(C)CCC3(C(=O)O)CCC(C)(C)CC3C12)NC(=O)OC(C)(C)C` [Compound 20e, 3β-hydroxy-12β-(4′-((tert-butoxycarbonyl)amide)-5′-isobutoxy-L-glutamate)oxy-13H-olean-28-oic acid] was run?
**A.** The IC50 was 1000 ± 170 nM.

**Q.** `CCC(C)OC(=O)C(CCC(=O)OC1CC2C3(C)CCC(O)C(C)(C)C3CCC2(C)C2(C)CCC3(C(=O)O)CCC(C)(C)CC3C12)NC(=O)OC(C)(C)C` [Compound 20f, 3β-hydroxy-12β-(4′-((tert-butoxycarbonyl)amide)-5′-(sec-butoxy)-L-glutamate)oxy-13H-olean-28-oic acid] was tested. Which IC50 did it give?
**A.** Its IC50 is 1010 ± 180 nM.

**Q.** With `CC1(C)CC[C@]2(C(=O)O)CC[C@]3(C)[C@H]([C@H](OC(=O)CC[C@H](N)C(=O)OC(C)(C)C)CC4[C@@]5(C)CC[C@H](O)C(C)(C)C5CC[C@]43C)[C@@H]2C1` (stereo partly drawn) [Compound 11a, 3-hydroxy-12β-((S)-4′-amino-5′-(tert-butoxy)-5-oxopentanoyl)oxy-13H-olean-28-oic acid] as the compound, how does the IC50 read?
**A.** The IC50 was 2950 ± 680 nM.

**Q.** How did the IC50 turn out when `CC(C)OC(=O)C(CCC(=O)OC1CC2C3(C)CCC(O)C(C)(C)C3CCC2(C)C2(C)CCC3(C(=O)O)CCC(C)(C)CC3C12)NC(=O)OC(C)(C)C` [Compound 20d, 3β-hydroxy-12β-(4′-((tert-butoxycarbonyl)amide)-5′-isopropoxy-L-glutamate)oxy-13H-olean-28-oic acid] was run?
**A.** Its IC50 is 550 ± 90 nM.

**Q.** Which IC50 does the source give for `COC(=O)NC(CCC(=O)OC1CC2C3(C)CCC(O)C(C)(C)C3CCC2(C)C2(C)CCC3(C(=O)O)CCC(C)(C)CC3C12)C(=O)OC(C)(C)C` [Compound 19a, 3β-hydroxy-12β-(4′-((methoxycarbonyl)amide)-5′-(tert-butoxy)-L-glutamate)oxy-13H-olean-28-oic acid] here?
**A.** The IC50 was 550 ± 220 nM.

**Q.** With `CC1(C)CCC2(C(=O)O)CCC3(C)C(C(OC(=O)CCC(NC(=O)OC(C)(C)C)C(=O)OC4CCCC4)CC4C5(C)CCC(O)C(C)(C)C5CCC43C)C2C1` [Compound 20g, 3β-hydroxy-12β-(4′-((tert-butoxycarbonyl)amide)-5′-cyclopentyloxy-L-glutamate)oxy-13H-olean-28-oic acid] as the compound, how does the IC50 read?
**A.** The IC50 was 820 ± 110 nM.

**Q.** `CCCOC(=O)C(CCC(=O)OC1CC2C3(C)CCC(O)C(C)(C)C3CCC2(C)C2(C)CCC3(C(=O)O)CCC(C)(C)CC3C12)NC(=O)OC(C)(C)C` [Compound 20c, 3β-hydroxy-12β-(4′-((tert-butoxycarbonyl)amide)-5′-propoxy-L-glutamate)oxy-13H-olean-28-oic acid] was tested. Which IC50 did it give?
**A.** The IC50 was 560 ± 130 nM.

**Q.** Which IC50 does the source give for `CC1(C)CC[C@]2(C(=O)O)CC[C@]3(C)[C@H]([C@H](OC(=O)C[C@H](NC(=O)OC(C)(C)C)C(=O)OC(C)(C)C)CC4[C@@]5(C)CC[C@H](O)C(C)(C)C5CC[C@]43C)[C@@H]2C1` (stereo partly drawn) [Compound 9a, 3-hydroxy-12β-(3′-((tert-butoxycarbonyl)amino)-4′-(tert-butoxy)-L-aspartate)oxy-13H-olean-28-oic acid] here?
**A.** The IC50 was 950 ± 140 nM.

**Q.** How did the IC50 turn out when `CC1(C)CC[C@]2(C(=O)O)CC[C@]3(C)[C@H]([C@H](OC(=O)C[C@@H](CC(=O)OC(C)(C)C)NC(=O)OC(C)(C)C)CC4[C@@]5(C)CC[C@H](O)C(C)(C)C5CC[C@]43C)[C@@H]2C1` (stereo partly drawn) [Compound 10c, 3-hydroxy-12β-((S)-3′-((tert-butoxycarbonyl)amino)-5′-(tert-butoxy)-5-oxopentanoyl)oxy-13H-olean-28-oic acid] was run?
**A.** The IC50 was 1340 ± 230 nM.

**Q.** Which IC50 does the source give for `CCC(C)OC(=O)NC(CCC(=O)OC1CC2C3(C)CCC(O)C(C)(C)C3CCC2(C)C2(C)CCC3(C(=O)O)CCC(C)(C)CC3C12)C(=O)OC(C)(C)C` [Compound 19f, 3β-hydroxy-12β-(4′-((sec-butoxycarbonyl)amide)-5′-(tert-butoxy)-L-glutamate)oxy-13H-olean-28-oic acid] here?
**A.** The IC50 was 600 ± 40 nM.

**Q.** With `CC1(C)CCC2(C(=O)O)CCC3(C)C(C(OC(=O)CCC(NC(=O)OC4CCCC4)C(=O)OC(C)(C)C)CC4C5(C)CCC(O)C(C)(C)C5CCC43C)C2C1` [Compound 19g, 3β-hydroxy-12β-(4′-(((cyclopentyloxy)carbonyl)amide)-5′-(tert-butoxy)-L-glutamate)oxy-13H-olean-28-oic acid] as the compound, how does the IC50 read?
**A.** The IC50 was 720 ± 180 nM.

**Q.** How did the IC50 turn out when `CC1(C)CC[C@]2(C(=O)O)CC[C@]3(C)[C@H]([C@H](OC(=O)CC[C@@H](NC(=O)OC(C)(C)C)C(=O)OC(C)(C)C)CC4[C@@]5(C)CC[C@H](O)C(C)(C)C5CC[C@]43C)[C@@H]2C1` (stereo partly drawn) [Compound 10a, 3-hydroxy-12β-(4′-((tert-butoxycarbonyl)amino)-5′-(tert-butoxy)-D-glutamate)oxy-13H-olean-28-oic acid] was run?
**A.** The IC50 was 1950 ± 270 nM.

**Q.** For `CC1(C)CC[C@]2(C(=O)O)CC[C@]3(C)[C@H]([C@H](OC(=O)[C@@H](CCC(=O)OC(C)(C)C)NC(=O)OC(C)(C)C)CC4[C@@]5(C)CC[C@H](O)C(C)(C)C5CC[C@]43C)[C@@H]2C1` (stereo partly drawn) [Compound 10d, 3-hydroxy-12β-(2′-((tert-butoxycarbonyl)amino)-5′-(tert-butoxy)-D-glutamate)oxy-13H-olean-28-oic acid], which IC50 is on record?
**A.** The IC50 was 3670 ± 390 nM.

**Q.** For `CC1(C)CCC2(C(=O)O)CCC3(C)C(C(OC(=O)CCC(NC(=O)Oc4ccccc4)C(=O)OC(C)(C)C)CC4C5(C)CCC(O)C(C)(C)C5CCC43C)C2C1` [Compound 19h, 3β-hydroxy-12β-(4′-((phenoxycarbonyl)amide)-5′-(tert-butoxy)-L-glutamate)oxy-13H-olean-28-oic acid], which IC50 is on record?
**A.** The IC50 was 2220 nM and 2180 nM.

**Q.** Which IC50 does the source give for `CC(C)COC(=O)NC(CCC(=O)OC1CC2C3(C)CCC(O)C(C)(C)C3CCC2(C)C2(C)CCC3(C(=O)O)CCC(C)(C)CC3C12)C(=O)OC(C)(C)C` [Compound 19e, 3β-hydroxy-12β-(4′-((isobutoxycarbonyl)amide)-5′-(tert-butoxy)-L-glutamate)oxy-13H-olean-28-oic acid] here?
**A.** The IC50 was 920 ± 140 nM.

**Q.** Which IC50 does the source give for `COC(=O)C(CCC(=O)OC1CC2C3(C)CCC(O)C(C)(C)C3CCC2(C)C2(C)CCC3(C(=O)O)CCC(C)(C)CC3C12)NC(=O)OC(C)(C)C` [Compound 20a, 3β-hydroxy-12β-(4′-((tert-butoxycarbonyl)amide)-5′-methoxy-L-glutamate)oxy-13H-olean-28-oic acid] here?
**A.** Its IC50 is 1100 ± 190 nM.

**Q.** For `CC1(C)CC[C@]2(C(=O)O)CC[C@]3(C)[C@H]([C@H](OC(=O)C[C@@H](NC(=O)OC(C)(C)C)C(=O)OC(C)(C)C)CC4[C@@]5(C)CC[C@H](O)C(C)(C)C5CC[C@]43C)[C@@H]2C1` (stereo partly drawn) [Compound 9b, 3-hydroxy-12β-(3′-((tert-butoxycarbonyl)amino)-4′-(tert-butoxy)-D-aspartate)oxy-13H-olean-28-oic acid], which IC50 is on record?
**A.** The IC50 was 2390 ± 350 nM.
